Experimental data published in PubChem BioAssay (NCI).
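Exposure lasted 48 hours, with cells grown in 96-well plates and compounds tested at five concentrations. GI50: concentration for 50% inhibition of growth. TGI: concentration producing complete growth inhibition.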

Legend:
Experiment in all cases: DTP human tumour cell line panel, 48 h
T-47D breast = tested on: T-47D breast
HS 578T breast = tested on: HS 578T breast
SF-268 CNS = tested on: SF-268 CNS
HOP-62 NSCLC = tested on: HOP-62 NSCLC
SN12C renal = tested on: SN12C renal
UACC-257 melanoma = tested on: UACC-257 melanoma
COLO 205 colon = tested on: COLO 205 colon
NCI-H460 lung = tested on: NCI-H460 lung
NCI/ADR-RES ovarian = tested on: NCI/ADR-RES ovarian
NCI-H226 lung = tested on: NCI-H226 lung

SMILES	TGI (T-47D breast)	TGI (HS 578T breast)	TGI (SF-268 CNS)	TGI (HOP-62 NSCLC)	TGI (SN12C renal)	TGI (UACC-257 melanoma)	TGI (COLO 205 colon)	TGI (NCI-H460 lung)	TGI (NCI/ADR-RES ovarian)	TGI (NCI-H226 lung)	GI50 (T-47D breast)	GI50 (HS 578T breast)	GI50 (SF-268 CNS)	GI50 (SN12C renal)	GI50 (COLO 205 colon)	GI50 (NCI-H460 lung)	GI50 (NCI/ADR-RES ovarian)	GI50 (NCI-H226 lung)
CCOC(=O)c1c(-c2cccc(Cl)c2)c(C(=O)OC)c(C)c2sc(C=O)nc12	45.6 µM	50.5 µM	38.6 µM	28.8 µM	30.8 µM	> 100 µM	34.4 µM	50.1 µM	68.5 µM	44.2 µM								
Cc1ccc(OCC2=NC3S/C(=C/c4ccc([N+](=O)[O-])o4)C(=O)N3N2)cc1 (stereo not drawn)	5.39 µM	89 µM	14.9 µM	33.7 µM	37 µM	25.5 µM	11.6 µM	41.6 µM	33.2 µM	33.3 µM								
COC(=O)C1=C(OC(=O)/C=C/c2ccc(Cl)cc2)C(C(=O)OC)[C@]2(O)[C@@H](C(=O)OC)[C@H]1C[C@@H](c1ccccc1)[C@@H]2C(=O)OC (stereo partly drawn)	> 100 µM	94 µM	> 25.4 µM	> 100 µM	> 29.5 µM	> 100 µM	> 22.2 µM	> 100 µM	> 28.8 µM	18.6 µM								
O/C(=C\c1nc2ccccc2nc1/C=C(\O)c1ccc(F)cc1)c1ccc(F)cc1	> 100 µM	> 100 µM	> 100 µM	> 100 µM	> 100 µM	> 100 µM	> 100 µM	> 100 µM	> 100 µM	> 100 µM								
N#Cc1ccccc1C#C/C=C\C#Cc1ccccc1N	> 100 µM	> 25.5 µM	> 56.2 µM		12.5 µM	> 22.8 µM	> 100 µM	> 100 µM	29.2 µM	> 38.5 µM	8.72 µM	5.29 µM	9.12 µM	2.41 µM	4.8 µM	5.43 µM	2.44 µM	6.6 µM
CC(=O)Nc1ccc(C(=O)NN2C(=O)C(Cl)C2c2cccc([N+](=O)[O-])c2)cc1 (stereo not drawn)			> 100 µM	> 100 µM		> 100 µM	> 100 µM	> 100 µM		> 100 µM								
CCN1CCN(c2nc3ccccc3nc2C(=O)c2ccc(OC)c(OC)c2)CC1	> 100 µM		> 100 µM	> 100 µM	> 100 µM	46.4 µM	2.91 µM	50.2 µM	3.39 µM	> 100 µM								
Cc1cc2ccc(OC(=O)c3ccc(N=C(N)N)cc3)cc2oc1=O	95 µM	71.6 µM	73.8 µM	48.5 µM	64 µM	> 100 µM	55.9 µM	> 100 µM	> 100 µM	56.2 µM								
CS(C)(=O)=Nn1c(=O)n2n(c1=O)C1c3ccccc3C2c2ccccc21	> 100 µM			> 100 µM		> 100 µM	> 100 µM	> 100 µM	> 100 µM									
Cn1c2[n+](c3nc(N)[nH]c(=O)c31)C1OC(C2)C(O)C1O (stereo not drawn)			> 100 µM	> 100 µM	> 100 µM	> 100 µM	> 100 µM			> 100 µM								
COc1cccc(/C=N/[N-]C(N)=O)c1[O-].[Ni+2].[OH3+]			0.945 µM	2.52 µM	1.49 µM	1.52 µM	0.291 µM	1.65 µM		2.11 µM								
CC1=CC(O)C(C(O)(C(F)(F)F)C(F)(F)F)C(C)(C)C1 (stereo not drawn)	> 10 µM	> 10 µM	> 10 µM	> 10 µM	> 10 µM	> 10 µM	> 10 µM	> 10 µM	> 10 µM	> 10 µM								
Nc1nnc(CCC(=O)Nc2cc(Cl)ccc2Cl)n1N			> 100 µM	> 100 µM	> 100 µM	> 100 µM	> 100 µM	> 100 µM		> 100 µM								
O=S(=O)(O)c1ccc2c(N=Nc3ccc(N=Nc4ccccc4)cc3)c(O)c(S(=O)(=O)O)cc2c1	> 100 µM	> 100 µM	> 100 µM	> 100 µM	> 100 µM	> 100 µM	> 100 µM	> 100 µM	> 100 µM	> 100 µM								
Cc1cc(C)c2c(=O)n(CC(O)CN3CCN(CCOCCO)CC3)sc2n1 (stereo not drawn)	47.2 µM	77.8 µM	39.8 µM	70.6 µM	37.1 µM	24.6 µM	34.1 µM	39 µM	> 100 µM	> 100 µM								
OCCCSCCO	> 100 µM	> 100 µM	> 100 µM	> 100 µM	> 100 µM	> 100 µM	> 100 µM	> 100 µM	> 100 µM	> 100 µM								
Cc1n[n+]([O-])c(C)cc1[N+](=O)[O-]	35.3 µM	66.9 µM	> 100 µM	42.7 µM	28.1 µM	29 µM	26.3 µM	28.4 µM	42.1 µM	60 µM								
CC1(C(=O)O)C[C@](C)(C(=O)OCc2ccccc2)C[C@](C)(C(=O)OCc2ccccc2)C1 (stereo partly drawn)	> 100 µM	89.8 µM	> 100 µM	> 100 µM	> 100 µM	> 100 µM	33.8 µM	57.5 µM	> 100 µM	> 100 µM								
